How the values were obtained:
[1] = test system: hES-derived cardiomyocytes; assay: Beating of hES-derived cardiomyocytes in response to pharmacological agonists; assay type: cell-based, human; conditions: hES2/END-2 co-culture derived cardiomyocytes
Method: (§1) END-2 cells and hES cells were cultured as described in Example 1. The hES2 cell line from ES Cell International Pte Ltd was used in all experiments. […] Co-cultures were then grown for up to 6 weeks and scored for the presence of areas of beating muscle from 5 days onwards. HepG2 cells, a carcinoma cell line resembling liver parenchymal cells (Knowles et al, (1980) Science 209:497-9), were cultured in DMEM plus 10% FCS and passaged twice weekly. […] Hanging-drop cultures of P19 EC cells were initiated and maintained in DMEM/Ham's F12 (1:1), as described previously (Mummery et al, 1991), using regular FCS while bulk production of P19 embryoid bodies in the presence or absence of END-2 conditioned medium for isolation of RNA for Northem blotting, was in the presence of charcoal-stripped FCS, as described (Mummery et al, 1991) to reduce background levels of cardiomyocyte differentiation caused by lipophilic substances possibly with retinoid-like activity in FCS. P19 clone 6 were cultured in αMEM and treated αMEM conditioned by END-2 cells. For electrophysiology, beating aggregates were dissociated using collagenase and replated on gelatine-coated coverslips.
The majority of the experiments described here were carried out using the hES2 cell line (Reubinoff et al, 2000). […] Oct4 expression thus correlated with phenotypic characteristics of undifferentiated cells. hES cells were subcultured by transferring small clumps of undifferentiated cells either to new, mit.C-treated MEFs or confluent cultures of mit.C-treated END-2 cells. After approximately 5d under these conditions, epithelial cells became evident which over the next few days become fluid-filled cysts (FIG. 1A). […] In addition, by 10 d areas of rhythmically contracting cells in more solid aggregates become evident (FIG. 1A, 3e) with a variety of overall morphologies (FIG. 1B, 3e). […]

Brachyury T = assay: Northern blot of Brachyury T in P19EC aggregates; assay type: cell-based, mouse; conditions: FIG. 10B
Method: as §1
RNA was isolated from P19 aggregates and poly A+ RNA selected, as described previously (Mummery et al, 1990, Dev. Biol. 142: 406413).
Background differentiation levels are reduced virtually to zero if the FCS is passed over an activated charcoal column (DCC-FCS) to remove residual retinoids; in addition, differentiation is blocked by activin (van den Eijnden-van Raaij et al, 1991, Mech. Dev. 33:157-166). […] The P19EC assay system was preferred because these cells are feeder independent for undifferentiated growth. […] Moreover, the induction of Brachyury T is blocked by the additional presence of activin (FIG. 10B), consistent with its ability to block the formation of beating muscle in aggregates. The transient expression of Brachyury T is similar to that observed during early mesoderm differentiation during gastrulation of the mouse embryo.

P19 EC cells [2] = conditions: van den Eijnden-van Raaij et al, 1991; cited from earlier work
P19 EC cells [3] = assay: Induction of beating muscle in replated P19EC aggregates (hanging drops); assay type: cell-based, mouse
Method: as §1, with “coverslips. […]” for “coverslips.”

CNC[C@H](O)c1cccc(O)c1 [phenylephrine]
beating of hES-derived cardiomyocytes in response to agonist [1]: upregulated

activin
effect on DMSO induced Brachyury T expression (Brachyury T; activin added with DMSO): blocked | effect on END-2 CM induced Brachyury T expression (Brachyury T; activin added with END-2 CM): blocked | effect on differentiation of P19EC aggregates to beating muscle (P19 EC cells [2]): blocked

C[S+](C)[O-] [DMSO, dimethyl sulphoxide]
cardiomyocyte differentiation of P19EC aggregates (P19 EC cells [3]; control, FIG. 10): induces cardiomyocyte differentiation | aggregates with beating muscle (P19 EC cells [3]; day 10, FIG. 10A): All aggregates beat | Brachyury T expression (early mesoderm marker) (Brachyury T; aggregation phase, first 3 days): induced

CC(C)NCC(O)c1ccc(O)c(O)c1 (stereo not drawn) [isoprenaline]
beating of hES-derived cardiomyocytes in response to agonist [1]: upregulated

C[N+](C)(C)CCOC(N)=O [carbachol]
beating of hES-derived cardiomyocytes in response to agonist [1]: upregulated

Reference: patent publication US8728457B2, “Methods of inducing differentiation of stem cells” (priority 2001, dated 2014)
